Data reported in the NIST ThermoML archive (doi:10.1021/je100507n).

Tests used:
[1] = for mass density: 101.33 kPa, Buoyancy - hydrostatic balance with magnetic suspension - one sinker; for mass density / surface tension liquid-gas: Liquid; for surface tension liquid-gas: Ring tensiometer
[2] = Molar enthalpy of transition or fusion

CCCC[n+]1ccccc1.O=S(=O)([N-]S(=O)(=O)C(F)(F)F)C(F)(F)F [1-butylpyridinium bis[(trifluoromethyl)sulfonyl]imide]
Settings | Molar enthalpy of transition or fusion, [2] [kJ/mol] | mass density, [1] [kg/m3] | surface tension liquid-gas, [1] [mN/m]
298.15 K | – | 1454.7 | 33.4
303.15 K | – | 1450.6 | 33.2
308.15 K | – | 1446.2 | 32.9
313.15 K | – | 1441.7 | 32.8
318.15 K | – | 1437.2 | 32.4
323.15 K | – | 1433.2 | 32.1
328.15 K | – | 1429.1 | 32
333.15 K | – | 1424.5 | 31.8
338.15 K | – | 1420.5 | –
Crystal | 27.9 | – | –

Settings | Normal melting temperature [°C]
[1], Crystal, DTA | 25.90

CC[n+]1ccccc1.O=S(=O)([N-]S(=O)(=O)C(F)(F)F)C(F)(F)F [1-ethylpyridinium bis[(trifluoromethyl)sulfonyl]imide]
Settings | Glass transition temperature [°C] | Molar enthalpy of transition or fusion [kJ/mol] | Normal melting temperature [°C] | Triple point temperature [K] | mass density [kg/m3] | surface tension liquid-gas [mN/m]
[1], 288.15 K | – | – | – | – | 1545.7 | 37.7
[1], 293.15 K | – | – | – | – | 1541.4 | 37.6
[1], 298.15 K | – | – | – | – | 1537.5 | 37.4
[1], 303.15 K | – | – | – | – | 1533.2 | 37.1
[1], 308.15 K | – | – | – | – | 1529.1 | 36.9
[1], 313.15 K | – | – | – | – | 1524.9 | 36.7
[1], 318.15 K | – | – | – | – | 1520.5 | 36.6
[1], 323.15 K | – | – | – | – | 1516.4 | 36.4
[1], 328.15 K | – | – | – | – | 1512.2 | 36.1
[1], 333.15 K | – | – | – | – | 1507.8 | 35.9
[1], 338.15 K | – | – | – | – | 1503.7 | 35.6
[1], Crystal 1, DTA | – | – | 30.50 | – | – | –
[1], Crystal 2, DTA | – | – | – | 292.8 | – | –
[1], DTA | -37.91 | – | – | – | – | –
[2], Crystal 1 | – | 18.9 | – | – | – | –

CCCCC[n+]1ccccc1.O=S(=O)([N-]S(=O)(=O)C(F)(F)F)C(F)(F)F [1-pentylpyridinium bis(trifluoromethylsulfonyl)amide]
Settings | Glass transition temperature [°C] | Molar enthalpy of transition or fusion [kJ/mol] | mass density [kg/m3] | surface tension liquid-gas [mN/m]
[1], 283.15 K | – | – | 1433.1 | 33.1
[1], 288.15 K | – | – | 1429.6 | 32.8
[1], 293.15 K | – | – | 1425.9 | 32.7
[1], 298.15 K | – | – | 1421.4 | 32.5
[1], 303.15 K | – | – | 1416.9 | 32.2
[1], 308.15 K | – | – | 1412.8 | 32
[1], 313.15 K | – | – | 1408.3 | 31.8
[1], 318.15 K | – | – | 1403.8 | 31.5
[1], 323.15 K | – | – | 1398.9 | 31.3
[1], 328.15 K | – | – | 1394.2 | 31.1
[1], 333.15 K | – | – | 1389.3 | 30.8
[1], 338.15 K | – | – | 1385.1 | 30.5
[1], DTA | -76.93 | – | – | –
[2], Crystal | – | 22.8 | – | –

Settings | Normal melting temperature [°C]
[1], Crystal, DTA | -0.31
